Test results from ChEMBL document CHEMBL3813678, “Synthesis and anticancer activity of novel 4-morpholino-7,8-dihydro-5H-thiopyrano[4,3-d]pyrimidine derivatives bearing chromone moiety” (Bioorg Med Chem, 2016).
pIC50: −log10 of the molar value.

What was measured:
A549 = assay: Cytotoxicity against human A549 cells after 72 hrs by MTT assay; format: functional, cell-based; details: for pIC50: Homo sapiens, A549, 72 h, read-out: IC50; for IC50: a549
[1] = Cytotoxicity against human PC3 cells after 72 hrs by MTT assay; format: functional, cell-based, PC-3; details: for pIC50: Homo sapiens, PC-3, 72 h, read-out: IC50; for IC50: pc-3
MCF7 = assay: Cytotoxicity against human MCF7 cells after 72 hrs by MTT assay; format: functional, cell-based; details: for pIC50: Homo sapiens, MCF7, 72 h, read-out: IC50; for IC50: mcf7
HeLa = assay: Cytotoxicity against human HeLa cells after 72 hrs by MTT assay; format: functional, cell-based; details: for pIC50: Homo sapiens, HeLa, 72 h, read-out: IC50; for IC50: hela
HepG2 = assay: Cytotoxicity against human HepG2 cells after 72 hrs by MTT assay; format: functional, cell-based; details: for pIC50: Homo sapiens, HepG2, 72 h, read-out: IC50; for IC50: hepg2
[2] = target: T1, Serine/threonine-protein kinase mTOR (Homo sapiens, UniProt P42345); assay: Inhibition of mTOR (unknown origin) using ULight4E-BP1 peptide as substrate incubated for 1 hr by TR-FRET assay
[3] = target: T1, Serine/threonine-protein kinase mTOR; assay: Inhibition of mTOR (unknown origin) at 10 uM using ULight4E-BP1 peptide as substrate incubated for 1 hr by TR-FRET assay
[4] = target: T2, Phosphatidylinositol 4,5-bisphosphate 3-kinase catalytic subunit alpha isoform (Homo sapiens, UniProt P42336); assay: Inhibition of PI3Kalpha (unknown origin) at 10 uM using PI substrate incubated for 60 mins by kinase-glo luminescence assay
[5] = target: T2, Phosphatidylinositol 4,5-bisphosphate 3-kinase catalytic subunit alpha isoform; assay: Inhibition of PI3Kalpha (unknown origin) using PI substrate incubated for 60 mins by kinase-glo luminescence assay

T2 sequence (P42336 whole entry, canonical isoform): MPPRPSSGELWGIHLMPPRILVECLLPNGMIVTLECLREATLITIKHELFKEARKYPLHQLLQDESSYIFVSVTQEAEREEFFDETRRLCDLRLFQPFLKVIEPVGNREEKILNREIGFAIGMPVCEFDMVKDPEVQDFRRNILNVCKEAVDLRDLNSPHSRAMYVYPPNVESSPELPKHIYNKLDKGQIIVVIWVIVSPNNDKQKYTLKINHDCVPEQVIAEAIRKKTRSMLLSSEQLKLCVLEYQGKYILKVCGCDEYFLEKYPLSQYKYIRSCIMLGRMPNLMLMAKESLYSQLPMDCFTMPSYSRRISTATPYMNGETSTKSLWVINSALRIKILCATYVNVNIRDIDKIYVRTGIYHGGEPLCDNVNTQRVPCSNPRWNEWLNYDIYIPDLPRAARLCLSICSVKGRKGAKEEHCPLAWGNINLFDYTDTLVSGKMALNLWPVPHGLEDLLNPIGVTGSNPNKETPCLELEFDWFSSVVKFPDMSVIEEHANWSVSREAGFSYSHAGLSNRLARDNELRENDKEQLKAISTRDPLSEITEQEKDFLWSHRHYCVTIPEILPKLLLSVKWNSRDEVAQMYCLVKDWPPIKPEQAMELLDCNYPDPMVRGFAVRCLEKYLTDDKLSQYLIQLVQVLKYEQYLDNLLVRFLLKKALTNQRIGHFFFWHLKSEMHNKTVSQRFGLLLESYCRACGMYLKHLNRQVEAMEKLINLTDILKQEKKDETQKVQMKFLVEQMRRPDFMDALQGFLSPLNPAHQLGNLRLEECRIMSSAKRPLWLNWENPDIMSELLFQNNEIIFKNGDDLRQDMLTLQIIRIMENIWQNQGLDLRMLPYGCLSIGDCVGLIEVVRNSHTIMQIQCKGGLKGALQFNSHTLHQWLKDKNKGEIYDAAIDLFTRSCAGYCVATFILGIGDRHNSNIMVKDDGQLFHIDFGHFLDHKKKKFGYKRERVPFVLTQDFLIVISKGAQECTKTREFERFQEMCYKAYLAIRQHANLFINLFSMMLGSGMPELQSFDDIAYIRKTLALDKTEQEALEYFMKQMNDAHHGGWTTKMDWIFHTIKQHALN

| Structure (SMILES) | pIC50 (A549) | pIC50 [1] | pIC50 (MCF7) | pIC50 (HeLa) | pIC50 (HepG2) | further results |
| --- | --- | --- | --- | --- | --- | --- |
| CC(C)c1ccc2occ(/C=N/Nc3nc4c(c(N5CCOCC5)n3)CSCC4)c(=O)c2c1 | 5.02 | 4.76 | 4.88 | 4.81 | 5.00 | IC50 [2]: Not Active |
| Cc1ccc2occ(/C=N/Nc3nc4c(c(N5CCOCC5)n3)CS(=O)(=O)CC4)c(=O)c2c1 | 4.68 | 4.42 | 4.66 | 4.72 | 4.63 |  |
| O=c1c(/C=N/Nc2nc3c(c(N4CCOCC4)n2)CS(=O)(=O)CC3)coc2ccc(Cl)cc12 | 4.75 | 4.33 | 4.63 | 4.52 | 4.42 |  |
| O=c1c(/C=N/Nc2nc3c(c(N4CCOCC4)n2)CSCC3)coc2ccc(O)cc12 | < 4.00 | < 4.00 |  |  |  | IC50 (MCF7): Not Active; IC50 (HeLa): Not Active; IC50 (HepG2): Not Active |
| O=c1c(/C=N/Nc2nc3c(c(N4CCOCC4)n2)CS(=O)(=O)CC3)coc2ccc(Br)cc12 | 4.30 | 4.19 | 4.22 |  |  | IC50 (HeLa): Not Active; IC50 (HepG2): Not Active |
| O=C(O)c1ccc2occ(/C=N/Nc3nc4c(c(N5CCOCC5)n3)CS(=O)(=O)CC4)c(=O)c2c1 |  |  |  |  |  | IC50 (A549): Not Active; IC50 [1]: Not Active; IC50 (MCF7): Not Active |
| CCc1ccc2occ(/C=N/Nc3nc4c(c(N5CCOCC5)n3)CSCC4)c(=O)c2c1 | 4.68 | 4.62 | 4.95 | 5.00 | 4.86 | IC50 [2]: Not Active |
| O=c1c(/C=N/Nc2nc3c(c(N4CCOCC4)n2)CSCC3)coc2ccc(Cl)cc12 | < 4.00 | 4.49 |  | 4.87 |  | IC50 (MCF7): Not Active; IC50 (HepG2): Not Active |
| CC(C)(C)c1ccc2occ(/C=N/Nc3nc4c(c(N5CCOCC5)n3)CS(=O)(=O)CC4)c(=O)c2c1 | 4.74 | 4.75 | 4.75 | 4.82 | 4.83 | inhibition [3]: 44.7%; inhibition [4]: 13.8% |
| CCc1ccc2occ(/C=N/Nc3nc4c(c(N5CCOCC5)n3)CS(=O)(=O)CC4)c(=O)c2c1 | 4.58 | 4.52 | 4.54 | 4.69 | 4.59 |  |
| CC(C)(C)c1ccc2occ(/C=N/Nc3nc4c(c(N5CCOCC5)n3)CSCC4)c(=O)c2c1 | 4.94 | 4.82 | 5.41 | 6.77 | 5.74 | inhibition [3]: 36.4%; inhibition [4]: 24% |
| O=c1c(/C=N/Nc2nc3c(c(N4CCOCC4)n2)CSCC3)coc2ccc([N+](=O)[O-])cc12 | 4.70 | 4.46 | 4.67 | 4.94 | 4.90 | inhibition [3]: 66.4%; inhibition [4]: 16.7% |
| O=c1c(/C=N/Nc2nc3c(c(N4CCOCC4)n2)CS(=O)(=O)CC3)coc2ccc(O)cc12 |  |  |  |  |  | IC50 (A549): Not Active; IC50 [1]: Not Active; IC50 (MCF7): Not Active |
| O=c1c(/C=N/Nc2nc3c(c(N4CCOCC4)n2)CSCC3)coc2ccc(Br)cc12 | < 4.00 | < 4.00 | < 4.00 | < 4.00 | < 4.00 |  |
| Cc1ccc2occ(/C=N/Nc3nc4c(c(N5CCOCC5)n3)CSCC4)c(=O)c2c1 | 4.37 | < 4.00 | 4.44 | 4.80 |  | IC50 (HepG2): Not Active |
| CC(C)c1ccc2occ(/C=N/Nc3nc4c(c(N5CCOCC5)n3)CS(=O)(=O)CC4)c(=O)c2c1 | 4.59 | 4.46 | 4.56 | 4.58 | 4.55 |  |
| O=C(O)c1ccc2occ(/C=N/Nc3nc4c(c(N5CCOCC5)n3)CSCC4)c(=O)c2c1 | 4.98 | 4.84 | 4.93 | 4.99 | 5.06 | pIC50 ([2]; read-out: IC50): 5.96; pIC50 ([5]; read-out: IC50): 6.04 |
| O=c1c(/C=N/Nc2nc3c(c(N4CCOCC4)n2)CS(=O)(=O)CC3)coc2ccc(F)cc12 |  |  |  |  |  | IC50 (A549): Not Active; IC50 [1]: Not Active; IC50 (MCF7): Not Active |
| O=c1c(/C=N/Nc2nc3c(c(N4CCOCC4)n2)CSCC3)coc2ccc(F)cc12 | 5.16 | 4.08 | 4.95 | 6.42 | 6.55 | IC50 [2]: Not Active |
| O=c1c(/C=N/Nc2nc3c(c(N4CCOCC4)n2)CS(=O)(=O)CC3)coc2ccc([N+](=O)[O-])cc12 |  |  |  |  |  | IC50 (A549): Not Active; IC50 [1]: Not Active; IC50 (MCF7): Not Active |
| COc1cc(/C=N/Nc2nc3c(c(N4CCOCC4)n2)CSCC3)cc(OC)c1O | 5.13 |  | 5.23 |  |  | IC50 [5]: Not Active |
| CS(=O)(=O)N1CCN(Cc2cc3nc(-c4cccc5[nH]ncc45)nc(N4CCOCC4)c3s2)CC1 [PICTILISIB] | 5.16 | 6.70 | 7.15 |  |  |  |
